Reference: patent US20100267561A1, “HERBICIDAL PYRIDAZINONE DERIVATIVES” (priority 2007, published 2010)

Experiments:
Assay in all cases: Test E pre-/postemergence plant response
Assay type in all cases: in vivo
[1] = tested on: common groundsel (Senecio vulgaris); details: Postemergence, scale 0 to 100
Excerpt: (§1) Seeds of plant species selected from bermudagrass (Cynodon dactylon), Surinam grass (Brachiaria decumbens), large crabgrass (Digitaria sanguinalis), green foxtail (Setaria viridis), goosegrass (Eleusine indica), johnsongrass (Sorghum halepense), kochia (Kochia scoparia), pitted morningglory (Ipomoea lacunosa), purple nutsedge (Cyperus rotundus), common ragweed (Ambrosia elation), black mustard (Brassica nigra), guineagrass (Panicum maximum), dallisgrass (Paspalum dilatatum), barnyardgrass (Echinochloa crus-galli), southern (S.) sandbur (Cenchrus echinatus), common sowthistle (Sonchus oleraceous), prickly sida (Sida spinosa), Italian ryegrass (Lolium multiflorum), common purslane (Portulaca oleracea), broadleaf signalgrass (Brachiaria platyphylla), common groundsel (Senecio vulgaris), common chickweed (Stellaria media), Virginia (V.) dayflower (Commelina virginica), tropical (T.) spiderwort (Commelina benghalensis), annual bluegrass (Poa annua), naked crabgrass (Digitaria nuda), itchgrass (Rottboellia cochinchinensis), quackgrass (Elytrigia repens), Canada horseweed (Conyza canadensis), field bindweed (Convolvulus arvensis), spanishneedles (Bidens bipinnata), common mallow (Malva sylvestris) and Russian thistle (Salsola kali) were planted and treated preemergence with test chemicals formulated in a non-phytotoxic solvent mixture which included a surfactant. At the same time, plants selected from these weed species were treated with postemergence applications of some of the test chemicals formulated in the same manner. Plants ranged in height from 2 to 18 cm (1- to 4-leaf stage) for postemergence treatments.
(§2) Treated plants and controls were maintained in a greenhouse for 14 to 21 days, after which time all species were compared to controls and visually evaluated. Plant response ratings, summarized in Table E, are based on a scale of 0 to 100 where 0 is no effect and 100 is complete control. A dash (-) response means no test result.

[2] = tested on: johnsongrass (Sorghum halepense); details: scale 0 to 100
Excerpt: as §1, §2

[3] = tested on: barnyardgrass (Echinochloa crus-galli); details: scale 0 to 100
Excerpt: as §1, §2

[4] = tested on: common chickweed (Stellaria media); details: Postemergence, scale 0 to 100
Excerpt: as §1, §2

[5] = tested on: naked crabgrass (Digitaria nuda); details: scale 0 to 100
Excerpt: as §1, §2

[6] = tested on: annual bluegrass (Poa annua); details: scale 0 to 100
Excerpt: as §1, §2

[7] = tested on: pitted morningglory (Ipomoea lacunosa); details: scale 0 to 100
Excerpt: as §1, §2

[8] = tested on: Italian ryegrass (Lolium multiflorum); details: scale 0 to 100
Excerpt: as §1, §2

[9] = tested on: southern (S.) sandbur (Cenchrus echinatus); details: scale 0 to 100
Excerpt: as §1, §2

With `CCc1cc(-c2ccc(Cl)cc2)nn1-c1c(OS(C)(=O)=O)cnn(C)c1=O` [Compound 39] the “Plant response rating, Groundsel” value ([1]; 31 g ai/ha) was 0, the “Plant response rating, Groundsel” value ([1]; 62 g ai/ha) was 0 and the “Plant response rating, Johnsongrass” value ([2]; 16 g ai/ha, Preemergence) was 75. The “Plant response rating, Johnsongrass” value ([2]; 31 g ai/ha, Preemergence) was 80, the “Plant response rating, Johnsongrass” value ([2]; 62 g ai/ha, Preemergence) was 98 and the “Plant response rating, Johnsongrass” value ([2]; Postemergence, 8 g ai/ha) was 35. The “Plant response rating, Johnsongrass” value ([2]; Postemergence, 16 g ai/ha) was 75, the “Plant response rating, Johnsongrass” value ([2]; Postemergence, 31 g ai/ha) was 75 and the “Plant response rating, Johnsongrass” value ([2]; Postemergence, 62 g ai/ha) was 95. For the same molecule, the “Plant response rating, Barnyardgrass” value ([3]; 8 g ai/ha, Preemergence) was 90, the “Plant response rating, Barnyardgrass” value ([3]; 16 g ai/ha, Preemergence) was 90 and the “Plant response rating, Barnyardgrass” value ([3]; 31 g ai/ha, Preemergence) was 100. The “Plant response rating, Barnyardgrass” value ([3]; 62 g ai/ha, Preemergence) was 100, the “Plant response rating, Barnyardgrass” value ([3]; Postemergence, 8 g ai/ha) was 100 and the “Plant response rating, Barnyardgrass” value ([3]; Postemergence, 16 g ai/ha) was 100. The “Plant response rating, Barnyardgrass” value ([3]; Postemergence, 31 g ai/ha) was 100, the “Plant response rating, Barnyardgrass” value ([3]; Postemergence, 62 g ai/ha) was 100 and the “Plant response rating, Chickweed” value ([4]; 8 g ai/ha) was 0. The “Plant response rating, Chickweed” value ([4]; 16 g ai/ha) was 0, the “Plant response rating, Chickweed” value ([4]; 31 g ai/ha) was 0 and the “Plant response rating, Chickweed” value ([4]; 62 g ai/ha) was 0. For the same molecule, the “Plant response rating, Crabgrass, Naked” value ([5]; 8 g ai/ha, Preemergence) was 75, the “Plant response rating, Crabgrass, Naked” value ([5]; 16 g ai/ha, Preemergence) was 98 and the “Plant response rating, Crabgrass, Naked” value ([5]; 31 g ai/ha, Preemergence) was 98. The “Plant response rating, Crabgrass, Naked” value ([5]; 62 g ai/ha, Preemergence) was 100, the “Plant response rating, Crabgrass, Naked” value ([5]; Postemergence, 8 g ai/ha) was 65 and the “Plant response rating, Crabgrass, Naked” value ([5]; Postemergence, 16 g ai/ha) was 80. For the same molecule, the “Plant response rating, Crabgrass, Naked” value ([5]; Postemergence, 31 g ai/ha) was 80, the “Plant response rating, Crabgrass, Naked” value ([5]; Postemergence, 62 g ai/ha) was 98 and the “Plant response rating, Bluegrass” value ([6]; 8 g ai/ha, Preemergence) was 0. For the same molecule, the “Plant response rating, Bluegrass” value ([6]; 16 g ai/ha, Preemergence) was 0, the “Plant response rating, Bluegrass” value ([6]; 31 g ai/ha, Preemergence) was 0 and the “Plant response rating, Bluegrass” value ([6]; 62 g ai/ha, Preemergence) was 0. For the same molecule, the “Plant response rating, Bluegrass” value ([6]; Postemergence, 8 g ai/ha) was 0, the “Plant response rating, Bluegrass” value ([6]; Postemergence, 16 g ai/ha) was 0 and the “Plant response rating, Bluegrass” value ([6]; Postemergence, 31 g ai/ha) was 0. The “Plant response rating, Bluegrass” value ([6]; Postemergence, 62 g ai/ha) was 0, the “Plant response rating, Morningglory” value ([7]; 16 g ai/ha, Preemergence) was 0 and the “Plant response rating, Morningglory” value ([7]; 31 g ai/ha, Preemergence) was 0. For the same molecule, the “Plant response rating, Morningglory” value ([7]; 62 g ai/ha, Preemergence) was 0, the “Plant response rating, Morningglory” value ([7]; Postemergence, 8 g ai/ha) was 0 and the “Plant response rating, Morningglory” value ([7]; Postemergence, 16 g ai/ha) was 0. The “Plant response rating, Morningglory” value ([7]; Postemergence, 31 g ai/ha) was 0, the “Plant response rating, Morningglory” value ([7]; Postemergence, 62 g ai/ha) was 0 and the “Plant response rating, Ryegrass, Italian” value ([8]; 16 g ai/ha, Preemergence) was 100. For the same molecule, the “Plant response rating, Ryegrass, Italian” value ([8]; 31 g ai/ha, Preemergence) was 100, the “Plant response rating, Ryegrass, Italian” value ([8]; Postemergence, 8 g ai/ha) was 75 and the “Plant response rating, Ryegrass, Italian” value ([8]; Postemergence, 16 g ai/ha) was 98. The “Plant response rating, Ryegrass, Italian” value ([8]; Postemergence, 31 g ai/ha) was 98, the “Plant response rating, Ryegrass, Italian” value ([8]; Postemergence, 62 g ai/ha) was 100 and the “Plant response rating, Sandbur, S.” value ([9]; 16 g ai/ha, Preemergence) was 90. The “Plant response rating, Sandbur, S.” value ([9]; 31 g ai/ha, Preemergence) was 100, the “Plant response rating, Sandbur, S.” value ([9]; 62 g ai/ha, Preemergence) was 100 and the “Plant response rating, Sandbur, S.” value ([9]; Postemergence, 8 g ai/ha) was 75. For the same molecule, the “Plant response rating, Sandbur, S.” value ([9]; Postemergence, 16 g ai/ha) was 85, the “Plant response rating, Sandbur, S.” value ([9]; Postemergence, 31 g ai/ha) was 95 and the “Plant response rating, Sandbur, S.” value ([9]; Postemergence, 62 g ai/ha) was 100.
